# Values quoted from earlier work, collected in patent US20220134131A1, “ENERGY AUGMENTATION STRUCTURES FOR MEASURING AND THERAPEUTIC USES” (IMMUNOLIGHT, LLC, priority 2019, published 2022).
# System: HT-29 cells
compound,measurement,value
"OO [H2O2, hydrogen peroxide]",effect of application on HT-29 cells,caused their death
